Test results from patent US4605744A, “Imidazole derivatives” (Hoffmann-La Roche Inc., priority 1985, dated 1986).
Where a name gives a salt, the structure may show the parent alone.

What was measured:
Assay in all cases: In vitro antibacterial activity (MIC)
Assay type in all cases: cell-based
[1] = test system: E. coli 5152; conditions: Escherichia coli, 5152, E. coli 5152; read-out: MIC
Outline: (§1)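 Inoculated with 1.5 μl per well of a 10^-2 overnight-culture dilution, Mueller-Hinton broth dilutions (128–0.008 μg/ml) are incubated overnight at 37° C. No-growth endpoint defines MIC.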

[2] = test system: S. marcescens S2; conditions: Serratia marcescens; S. marcescens S2; read-out: MIC
Outline: as §1

[3] = test system: P. aeruginosa Stone 130; conditions: Pseudomonas aeruginosa, STONE130, read-out: MIC
Outline: as §1

[4] = test system: S. faecalis C1; conditions: Enterococcus faecalis; S. faecalis C1; read-out: MIC
Outline: as §1

[5] = test system: E. aerogenes 83; conditions: Klebsiella aerogenes, 83, E. aerogenes 83; read-out: MIC
Outline: as §1

[6] = test system: S. aureus Giorgio; conditions: Staphylococcus aureus, S. aureus Giorgio; read-out: MIC
Outline: as §1

[7] = test system: P. mirabilis 2; conditions: Proteus mirabilis, 2, P. mirabilis 2; read-out: MIC
Outline: as §1

[8] = test system: P. vulgaris 100; conditions: Proteus vulgaris; P. vulgaris 100; read-out: MIC
Outline: as §1

[9] = test system: E. cloacae 9570A; conditions: Enterobacter cloacae, read-out: MIC
Outline: as §1

[10] = test system: P. aeruginosa 5712; conditions: Pseudomonas aeruginosa; P. aeruginosa 5712; read-out: MIC
Outline: as §1

[11] = test system: E. aerogenes 8; conditions: Klebsiella aerogenes; E. aerogenes 8; read-out: MIC
Outline: as §1

[12] = test system: E. aerogenes 503-478; conditions: Klebsiella aerogenes, 503478, E. aerogenes 503-478; read-out: MIC
Outline: as §1

[13] = test system: S. marcescens S147; conditions: Serratia marcescens; S. marcescens S147; read-out: MIC
Outline: as §1

[14] = test system: E. cloacae 9295; conditions: Enterobacter cloacae, 9295, E. cloacae 9295; read-out: MIC
Outline: as §1

[15] = test system: E. cloacae 214; conditions: Enterobacter cloacae, 214, E. cloacae 214; read-out: MIC
Outline: as §1

[16] = test system: K. pneumoniae 35; conditions: Klebsiella pneumoniae; K. pneumoniae 35; read-out: MIC
Outline: as §1

[17] = test system: P. aeruginosa 5700; conditions: Pseudomonas aeruginosa, 5700, P. aeruginosa 5700; read-out: MIC
Outline: as §1

[18] = test system: E. cloacae 6951; conditions: Enterobacter cloacae, 6951, E. cloacae 6951; read-out: MIC
Outline: as §1

[19] = test system: P. aeruginosa POW 151; conditions: Pseudomonas aeruginosa, POW151
Outline: as §1

[20] = test system: S. marcescens 5805; conditions: Serratia marcescens, 5805, S. marcescens 5805; read-out: MIC
Outline: as §1

[21] = test system: P. aeruginosa 503-820; conditions: Pseudomonas aeruginosa, 503820; P. aeruginosa 503-820; read-out: MIC
Outline: as §1

[22] = test system: K. pneumoniae HE7; conditions: Klebsiella pneumoniae; K. pneumoniae HE7; read-out: MIC
Outline: as §1

[23] = test system: P. aeruginosa B; conditions: Pseudomonas aeruginosa, read-out: MIC
Outline: as §1

[24] = test system: K. pneumoniae 503-994; conditions: Klebsiella pneumoniae, 503994, K. pneumoniae 503-994; read-out: MIC
Outline: as §1

[25] = test system: E. coli 48; conditions: Escherichia coli, 48, E. coli 48; read-out: MIC
Outline: as §1

[26] = test system: S. marcescens SM; conditions: Serratia marcescens, read-out: MIC
Outline: as §1

[27] = test system: E. coli 387-1; conditions: Escherichia coli, 3871, E. coli 387-1; read-out: MIC
Outline: as §1

[28] = test system: S. pyogenes 503-782; conditions: Streptococcus pyogenes, 503782; S. pyogenes 503-782; read-out: MIC
Outline: as §1

[29] = test system: E. coli 4; conditions: Escherichia coli, 4, E. coli 4; read-out: MIC
Outline: as §1

[30] = test system: E. coli 503-455; conditions: Escherichia coli, 503455, E. coli 503-455; read-out: MIC
Outline: as §1

[31] = test system: C. diversus CDC 1663-72; conditions: Citrobacter koseri, CDC166372; C. diversus CDC 1663-72; read-out: MIC
Outline: as §1

[32] = test system: S. marcescens S1; conditions: Serratia marcescens, S1, S. marcescens S1; read-out: MIC
Outline: as §1

[33] = test system: S. schottmuelleri; conditions: read-out: MIC
Outline: as §1

[34] = test system: P. aeruginosa 6148B; conditions: Pseudomonas aeruginosa, read-out: MIC
Outline: as §1

[35] = test system: P. mirabilis 620A; conditions: Proteus mirabilis, 620A, P. mirabilis 620A; read-out: MIC
Outline: as §1

[36] = test system: S. marcescens S5; conditions: Serratia marcescens, S5, S. marcescens S5; read-out: MIC
Outline: as §1

[37] = test system: S. aureus 1059B; conditions: Staphylococcus aureus, read-out: MIC
Outline: as §1

[38] = test system: P. aeruginosa 8780; conditions: Pseudomonas aeruginosa; P. aeruginosa 8780; read-out: MIC
Outline: as §1

[39] = test system: K. pneumoniae 8357; conditions: Klebsiella pneumoniae, 8357, K. pneumoniae 8357; read-out: MIC
Outline: as §1

[40] = test system: K. pneumoniae 4964; conditions: Klebsiella pneumoniae, 4964, K. pneumoniae 4964; read-out: MIC
Outline: as §1

[41] = test system: S. marcescens S4; conditions: Serratia marcescens, S4, S. marcescens S4; read-out: MIC
Outline: as §1

[42] = test system: S. aureus Smith; conditions: Staphylococcus aureus, S. aureus Smith; read-out: MIC
Outline: as §1

[43] = test system: K. pneumoniae 503-964; conditions: Klebsiella pneumoniae, 503964; K. pneumoniae 503-964; read-out: MIC
Outline: as §1

[44] = test system: S. marcescens S714; conditions: Serratia marcescens, S714, S. marcescens S714; read-out: MIC
Outline: as §1

[45] = test system: P. vulgaris 101; conditions: Proteus vulgaris, 101, P. vulgaris 101; read-out: MIC
Outline: as §1

In the case of `CC1(C)S[C@@H]2[C@H](N=CN3CCC(C4=NCCN4)CC3)C(=O)N2[C@H]1C(=O)O` [L, [2S-(2alpha,5alpha,6beta)]-6-[[[4-(4,5-dihydro-1H-imidazol-2-yl)-1-piperidinyl]methylene]amino]-3,3-dimethyl-7-oxo-4-thia-1-azabicyclo[3.2.0]heptane-2-carboxylic acid hydrochloride], the MIC [1] is reported as 32 µg/mL, the MIC [2] is reported as 0.5 µg/mL and the MIC [3] is reported as > 128 µg/mL. The MIC [4] was 32 µg/mL, the MIC [5] was 2 µg/mL and the MIC [6] was 2 µg/mL. For the same compound, the MIC [7] was 1 µg/mL, the MIC [8] was 32 µg/mL and the MIC [9] was 2 µg/mL. The MIC [10] was > 128 µg/mL, the MIC [11] was 32 µg/mL and the MIC [12] was 8 µg/mL. It also gave an MIC [13] of 1 µg/mL, an MIC [14] of 2 µg/mL and an MIC [15] of 1 µg/mL. It also gave an MIC [16] of 2 µg/mL, an MIC [17] of 2 µg/mL and an MIC [18] of 8 µg/mL. For the same compound, the MIC [19] was > 128 µg/mL, the MIC [20] was 8 µg/mL and the MIC [21] was 128 µg/mL. The MIC [22] was > 128 µg/mL, the MIC [23] was 0.5 µg/mL and the MIC [24] was 1 µg/mL. The MIC [25] was 0.5 µg/mL, the MIC [26] was 1 µg/mL and the MIC [27] was 0.25 µg/mL. It also gave an MIC [28] of 32 µg/mL, an MIC [29] of 0.125 µg/mL and an MIC [30] of 4 µg/mL. For the same compound, the MIC [31] was 0.5 µg/mL, the MIC [32] was 0.5 µg/mL and the MIC [33] was 0.25 µg/mL. The MIC [34] was 128 µg/mL, the MIC [35] was > 128 µg/mL and the MIC [36] was 4 µg/mL. The MIC [37] was 64 µg/mL, the MIC [38] was > 128 µg/mL and the MIC [39] was 2 µg/mL. For the same compound, the MIC [40] was 64 µg/mL, the MIC [41] was 2 µg/mL and the MIC [42] was 4 µg/mL. It also gave an MIC [43] of 2 µg/mL, an MIC [44] of 2 µg/mL and an MIC [45] of 32 µg/mL.
With `CC1(C)S[C@@H]2[C@H](N=CN3CCC(CC4=NCCN4)CC3)C(=O)N2[C@H]1C(=O)O` [M, [2S-(2alpha,5alpha,6beta)]-6-[[[4-[(4,5-dihydro-1H-imidazol-2-yl)methyl]-1-piperidinyl]methylene]amino]-3,3-dimethyl-7-oxo-4-thia-1-azabicyclo[3.2.0]heptane-2-carboxylic acid hydrochloride] the MIC [1] was 16 µg/mL, the MIC [2] was 0.25 µg/mL and the MIC [3] was > 128 µg/mL. For the same compound, the MIC [4] was 32 µg/mL, the MIC [5] was 2 µg/mL and the MIC [6] was 2 µg/mL. For the same compound, the MIC [7] was 0.5 µg/mL, the MIC [8] was 8 µg/mL and the MIC [9] was 0.25 µg/mL. It also gave an MIC [10] of 128 µg/mL, an MIC [11] of 32 µg/mL and an MIC [12] of 4 µg/mL. The MIC [13] was 0.25 µg/mL, the MIC [14] was 0.5 µg/mL and the MIC [15] was 0.25 µg/mL. It also gave an MIC [16] of 1 µg/mL, an MIC [17] of 0.125 µg/mL and an MIC [18] of 32 µg/mL. For the same compound, the MIC [19] was > 128 µg/mL, the MIC [20] was 1 µg/mL and the MIC [21] was 64 µg/mL. The MIC [22] was > 128 µg/mL, the MIC [23] was 0.25 µg/mL and the MIC [24] was 0.25 µg/mL. The MIC [25] was 0.125 µg/mL, the MIC [26] was 0.125 µg/mL and the MIC [27] was 0.062 µg/mL. The MIC [28] was 32 µg/mL, the MIC [29] was 0.062 µg/mL and the MIC [30] was 2 µg/mL. The MIC [31] was 0.062 µg/mL, the MIC [32] was 0.25 µg/mL and the MIC [33] was 0.062 µg/mL. For the same compound, the MIC [34] was 32 µg/mL, the MIC [35] was > 128 µg/mL and the MIC [36] was 1 µg/mL. It also gave an MIC [37] of 32 µg/mL, an MIC [38] of 128 µg/mL and an MIC [39] of 1 µg/mL. It also gave an MIC [40] of 2 µg/mL, an MIC [41] of 1 µg/mL and an MIC [42] of 4 µg/mL. For the same compound, the MIC [43] was 0.25 µg/mL, the MIC [44] was 0.5 µg/mL and the MIC [45] was 16 µg/mL.
